For test [1], the target named is T1, Type-1 angiotensin II receptor (Oryctolagus cuniculus, UniProt P34976).
T1 sequence (P34976 whole entry): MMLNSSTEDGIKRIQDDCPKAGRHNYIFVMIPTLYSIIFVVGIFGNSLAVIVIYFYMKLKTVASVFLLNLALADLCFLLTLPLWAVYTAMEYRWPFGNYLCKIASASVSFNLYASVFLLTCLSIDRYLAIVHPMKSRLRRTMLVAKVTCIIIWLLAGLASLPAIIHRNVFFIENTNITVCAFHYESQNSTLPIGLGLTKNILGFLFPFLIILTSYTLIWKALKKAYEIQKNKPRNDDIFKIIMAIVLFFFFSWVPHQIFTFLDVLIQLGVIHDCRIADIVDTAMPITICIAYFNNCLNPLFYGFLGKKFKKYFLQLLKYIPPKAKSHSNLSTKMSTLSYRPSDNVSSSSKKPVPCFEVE
The experiment in a line: In vitro antagonist activity against angiotensin II receptor type 1 in rabbit aorta using [125I]-Sar, Ile AII. It counts as functional, tissue-based.

For test [2], the target named is T2, Type-2 angiotensin II receptor (Rattus norvegicus, UniProt P35351).
T2 sequence (P35351 whole entry): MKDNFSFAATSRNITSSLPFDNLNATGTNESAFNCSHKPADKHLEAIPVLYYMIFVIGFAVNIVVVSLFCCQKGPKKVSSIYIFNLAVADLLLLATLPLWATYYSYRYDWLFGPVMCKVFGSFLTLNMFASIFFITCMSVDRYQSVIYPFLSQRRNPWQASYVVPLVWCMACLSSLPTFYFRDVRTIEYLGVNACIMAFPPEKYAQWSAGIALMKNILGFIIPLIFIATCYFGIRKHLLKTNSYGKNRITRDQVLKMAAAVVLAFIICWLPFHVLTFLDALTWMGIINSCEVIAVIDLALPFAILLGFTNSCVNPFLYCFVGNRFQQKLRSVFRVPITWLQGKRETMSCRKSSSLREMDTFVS
Briefly: In vitro antagonist activity against angiotensin II type 2 (AT2) receptor in rat midbrain using [125I]- Sar, Ile AII. It counts as functional.

In ChEMBL document CHEMBL1126574, “Non-peptide angiotensin II receptor antagonists. 2. Design, synthesis, and biological activity of N-substituted (phenylamino)phenylacetic acids and acyl sulfonamides” (J Med Chem, 1993) one finds IC50 data, which are given here for 28 compounds.

A value given as a limit tells only on which side of the number the result lay.

Take `CCc1nc2c(C)cc(C)nc2n1Cc1ccc(N(CC)C(C(=O)O)c2ccccc2)cc1` (stereo not given): the IC50 in test [1] worked out at 4 nM; in test [2] it was 740 nM. As to `CCc1nc2c(C)cc(C)nc2n1Cc1ccc(N(CC(C)C)C(C(=O)O)c2ccccc2)cc1` (stereo not given), the IC50 in test [1] is 22 nM; in test [2], above 300 nM. For the compound `CCc1nc2c(C)cc(C)nc2n1Cc1ccc(NC(C(=O)O)c2ccccc2)cc1` (stereo not given), the figures for the half-inhibitory concentration (IC50) in test [1] and in test [2] were 200 nM and 21000 nM, respectively. In the case of `CCc1nc2c(C)cc(C)nc2n1Cc1ccc(N(C)C(C(=O)O)c2ccccc2)cc1` (stereo not given), the values for the half-maximal inhibitory concentration (IC50) in test [1] and in test [2] were 8.2 nM and 3400 nM, respectively. In the case of `CCc1nc2c(C)cc(C)nc2n1Cc1ccc(-c2ccccc2-c2nnn[nH]2)cc1` [L-158809], in test [2], the half-maximal inhibitory concentration (IC50) is above 10000 nM. Take `CCc1nc2c(C)cc(C)nc2n1Cc1ccc(N(CC)C(C(=O)O)c2ccccc2)c(C)c1` (stereo not given): the half-inhibitory concentration (IC50) is 10 nM in test [1] and 8600 nM in test [2]. For the compound `CCc1nc2c(C)cc(C)nc2n1Cc1ccc(N(CC)C(C(=O)O)c2cccc(C)c2)cc1` (stereo not given), the IC50 in test [1] was 66 nM; in test [2] it was 2100 nM. As to `CCc1nc2c(C)cc(C)nc2n1Cc1ccc(N(CC2CC2)C(C(=O)O)c2ccccc2)cc1` (stereo not given), the values for the IC50 in test [1] and in test [2] were 31 nM and 2200 nM, respectively. For `CCCN(c1ccc(Cn2c(CC)nc3c(C)cc(C)nc32)cc1C)C(C(=O)O)c1ccccc1` (stereo not given) the same measures were 12 nM and 4800 nM.

As to `C=CCN(c1ccc(Cn2c(CC)nc3c(C)cc(C)nc32)cc1)C(C(=O)NS(=O)(=O)c1ccccc1)c1ccccc1` (stereo not given), the IC50 in test [1] was determined as 1 nM; in test [2] it was 2900 nM. For `C=CCN(c1ccc(Cn2c(CC)nc3c(C)cc(C)nc32)cc1C)C(C(=O)O)c1ccccc1C` (stereo not given) the same measures were 82 nM and 11000 nM. As to `CCc1nc2c(C)cc(C)nc2n1Cc1ccc(N(C)C(C(=O)O)c2ccccc2)c(C)c1` (stereo not given), the IC50 in test [1] came out at 70 nM; in test [2], 11000 nM.

Take `CCc1nc2c(C)cc(C)nc2n1Cc1ccc(NC(C(=O)O)c2cc(C(F)(F)F)cc(C(F)(F)F)c2)cc1` (stereo not given): the results for the IC50 in test [1] and in test [2] were 860 nM and 6000 nM, respectively. As for `C=CCN(c1ccc(Cn2c(CC)nc3c(C)cc(C)nc32)cc1C)C(C(=O)O)c1ccccc1` (stereo not given), the half-inhibitory concentration (IC50) in test [1] was 34 nM; in test [2] it was 4300 nM.

Take `CCc1nc2c(C)cc(C)nc2n1Cc1ccc(N(C)C(c2ccccc2)c2nnn[nH]2)cc1` (stereo not given): the half-maximal inhibitory concentration (IC50) in test [1] was 15 nM; in test [2] it was above 30000 nM.

As to `CCc1nc2c(C)cc(C)nc2n1Cc1ccc(N(C(C)CC)C(C(=O)O)c2ccccc2)cc1` (stereo not given), the concentration for half-maximal inhibition (IC50) amounted to 80 nM in test [1] and 1600 nM in test [2]. Regarding `CCCN(c1ccc(Cn2c(CC)nc3c(C)cc(C)nc32)cc1)C(C(=O)NS(=O)(=O)c1ccccc1)c1ccccc1` (stereo not given), the half-maximal inhibitory concentration (IC50) in test [1] was 0.8 nM; in test [2] it was 420 nM.

As for `C=CCN(c1ccc(Cn2c(CC)nc3c(C)cc(C)nc32)cc1)C(C(=O)O)c1ccccc1` (stereo not given), the half-maximal inhibitory concentration (IC50) turned out to be 5.3 nM in test [1] and 490 nM in test [2]. Regarding `C=CCN(c1ccc(Cn2c(CC)nc3c(C)cc(C)nc32)cc1)C(C(=O)O)c1cc(F)ccc1F` (stereo not given), the IC50 turned out to be 200 nM in test [1] and 8800 nM in test [2].

Take `CCCN(c1ccc(Cn2c(CC)nc3c(C)cc(C)nc32)cc1)C(C(=O)O)c1ccccc1` (stereo not given): the IC50 was determined as 5.3 nM in test [1] and 560 nM in test [2].

`CCc1nc2c(C)cc(C)nc2n1Cc1ccc(N(C)C(C(=O)O)c2cc(F)ccc2F)cc1` (stereo not given): the 50% inhibitory concentration (IC50) in test [1] is above 100 nM; in test [2] it was above 10000 nM. As to `CCc1nc2c(C)cc(C)nc2n1Cc1ccc(N(CC)C(C(=O)O)c2cc(C(F)(F)F)cc(C(F)(F)F)c2)cc1` (stereo not given), the half-inhibitory concentration (IC50) in test [1] is 1900 nM; in test [2] it was 12000 nM. With `CCc1nc2c(C)cc(C)nc2n1Cc1ccc(N(CC)C(C(=O)O)c2cc(F)ccc2F)cc1` (stereo not given), the values for the half-maximal inhibitory concentration (IC50) in test [1] and in test [2] were 88 nM and above 10000 nM, respectively. Turning to `CCCCN(c1ccc(Cn2c(CC)nc3c(C)cc(C)nc32)cc1)C(C(=O)O)c1ccccc1` (stereo not given), the IC50 in test [1] worked out at 94 nM; in test [2], 660 nM. Consider `CCc1nc2c(C)cc(C)nc2n1Cc1ccc(N(CC)C(C(=O)NS(=O)(=O)c2ccccc2)c2ccccc2)cc1` (stereo not given), for which the half-maximal inhibitory concentration (IC50) in test [1] came out at 0.9 nM; in test [2], 200 nM. For the compound `CCc1nc2c(C)cc(C)nc2n1Cc1ccc(NC(C(=O)O)c2ccccc2)c(C)c1` (stereo not given), the results for the half-inhibitory concentration (IC50) in test [1] and in test [2] were 100 nM and 11000 nM, respectively.

With `CCc1nc2c(C)cc(C)nc2n1Cc1ccc(NC(C(=O)O)c2ccccc2C)c(C)c1` (stereo not given), the figures for the IC50 in test [1] and in test [2] were 28 nM and 19000 nM, respectively. Consider `CCc1nc2c(C)cc(C)nc2n1Cc1ccc(N(CC)C(C(=O)O)c2ccccc2Cl)cc1` (stereo not given), for which the figures for the IC50 in test [1] and in test [2] were 380 nM and above 10000 nM, respectively.

A word on the IC50: it is the concentration needed to halve the response being measured. A high value points to a need for much substance.
